From patent US20190358138A1, “A PERSONAL CARE COMPOSITION” (Conopco, Inc., d/b/a UNILEVER, priority 2017, published 2019)

Key:
[1] = test system: store-operated Ca^2+ entry (SOCE); assay: Store-operated Ca2+ entry (SOCE) in isolated human eccrine sweat glands, thapsigargin-induced, Fura-2 340:380 ratio; type: cell-based; settings: for IC50: half-maximal concentration from dose-response curve, isolated eccrine glands, 1 μM thapsigargin; for inhibition at 10 µM: reduction in 340:380 ratio at maximal inhibitor concentration 10^−5M, as % of control response, read-out: Potency (% inhibition at 10^−5M)
Method: Isolation of Human Eccrine Sweat Glands
Viable human eccrine sweat glands were isolated from samples of human skin (obtained under ethical consent).
Measurement of Intracellular Ca^2+ Concentration
Intracellular [Ca^2+]i was measured in isolated eccrine glands by plating them onto Matrigel coated glass coverslips and loading them with the calcium-sensitive, fluorescent dye Fura-2 by incubation (30-45 minutes, 37° C.) with the membrane-permeant, acetoxymethyl ester form of the dye (Fura-2AM). These coverslips (with dye-loaded glands) were then mounted in a small chamber attached to the stage of an inverted microscope, and the glands superfused (ca. 5 ml minute^−1, 37° C.) with physiological salt solution (PSS; composition (mM): NaCl 130, KCl 5, MgCl2 1, CaCl2 1, HEPES 20, D-Glucose 10, pH 7.4 with NaOH). Changes in [Ca^2+]i were detected using 340/380 nm excitation and 510 nm emission wavelengths, and data expressed as the 340:380 ratio.
Measurement of Store-Operated Ca^2+ Entry (SOCE)
To measure store-operated calcium entry (SOCE), independent of external membrane receptor activation, the following assay protocol was used. First, isolated glands were exposed to 1 μM thapsigargin in Ca^2+-free PSS for 3 minutes. As thapsigargin inhibits the Ca^2+-ATPase uptake pathway in intracellular Ca^2+ stores, this enables Ca^2+ to leak out of the store and subsequently trigger the activation of SOCE. In Ca^2+-free PSS, this process is represented by a very small rise in [Ca^2+]i. Glands were then exposed to 1 μM thapsigargin in Ca^2+-containing PSS for 2 minutes, thereby inducing a rapid increase in [Ca^2+]i via Ca^2+ entry into the cells via the open SOCE pathway. To complete the protocol, thapsigargin is finally removed by washing the glands with Ca^2+ -containing PSS, and allowing the resting [Ca^2+]i level to re-establish itself, and the intracellular Ca^2+ stores to refill. The effectiveness of selected SOCE channel inhibitors were assessed by repeating the above procedure in the presence of the inhibitor (at a chosen concentration) from the time at which thapsigargin was added to release the intracellular Ca^2+ stores, until the cells were finally washed following the Ca^2+ peak initiated by Ca^2+ entry. Dose-response curves were constructed for each inhibitor and the half-maximal concentration (IC50) determined. The potency of each inhibitor was also assessed by expressing the reduction in the 340:380 ratio observed at the maximum concentration (10^−5M) as a % of the control response (i.e. in the absence of inhibitor; see Table 1).

interleukin (IL)-6 = assay: THP-1 in vitro anti-inflammation assay: IL-6 ELISA in supernatant of PMA-differentiated, LPS-treated THP1-XBlue cells; type: cell-based; settings: 24 hours, LPS alone 24176
Method: The following procedure was used to test the anti-inflammation efficacy of the actives.
THP1-XBlue™ (Cat No: thpx-sp, InvivoGen) cells were cultured as a suspension in RPMI 1640 medium supplemented with 10% FBS, penicillin (10 U/mL)—streptomycin (10 μg/ML). Cells were differentiated in 24-well plates at the density of 5×10^5 cells/well with 100 nM PMA for 72 hours. Cells were then co-treated with pure E. coli lipopolysaccharides (LPS) and with active. After 24 hours, the supernatants were collected and measured for interleukin (IL)-6 as pro-inflammatory bio-marker using enzyme-linked immunosorbent assay (ELISA).

[2] = 20 μM active co-treated with E. coli LPS

Structure (SMILES)	IC50 [1] [nM]	inhibition at 10 µM [1] [%]	Concentration of IL-6 (interleukin (IL)-6; [2]) [pg/mL]	Concentration of IL-6 (interleukin (IL)-6; 10 μM active co-treated with E. coli LPS) [pg/mL]
COc1ccc(/C=C/C(=O)C(C)(C)C(=O)/C=C/c2ccc(OC)c(OC)c2)cc1OC [Formula 2]	24	99	–	–
COc1cc(CCC(O)CC(O)CCc2ccc(O)c(OC)c2)ccc1O (stereo not drawn) [Formula 4, 1,7-bis(4-hydroxy-3-methoxyphenyl) heptane-3,5-diol]	91.2	75.4	18218	–
COc1ccc(CCC(O)C(C)(C)C(O)CCc2ccc(OC)c(OC)c2)cc1OC (stereo not drawn) [Formula 5, 1,7-bis (3,4-dimethoxyphenyl)-4,4-dimethylheptane-3,5-diol]	138	76	9142	14880
